According to patent publication US20090042937A1, “[…] USE IN TREATING OR […]-RELATED DISEASES” (priority 2005, published 2009):
Values joined by “and” are separate entries in the source; they are usually repeats but may differ in a detail not shown here. Equal values may be shown once.

What was measured:
caspase 3 [1] = assay: Circulating serum protein levels in patient after Tempol treatment; assay type: in vivo, human; settings: 1500 mg per day for 180 days
From the text: (§1) This may be administered in a single dose, or may be administered as a number of smaller doses over a 24-hour period: for example, three 500-mg doses at eight-hour intervals. Following treatment, the circulating serum protein levels of serum amyloid P-component precursor, serum amyloid A-1 protein precursor, JAK-1, cathepsin B, eukaryotic translation initiation factor 4E member 2, cyclooxygenase-1, and caspase 3 are reduced. Furthermore, the serum protein levels of eukaryotic translation initiation factor 4E binding protein are increased.
as §1, with “JAK-1, and” for “JAK-1,”

cathepsin B = assay: as above; assay type: in vivo, human; settings: 1500 mg per day for 180 days
From the text: as §1
as §1, with “JAK-1, and” for “JAK-1,”

[2] = tested on: serum amyloid P-component precursor; assay: as above; assay type: in vivo, human; settings: 1500 mg per day for 180 days
From the text: as §1
as §1, with “JAK-1, and” for “JAK-1,”

JAK-1 = assay: as above; assay type: in vivo, human; settings: 1500 mg per day for 180 days
From the text: as §1
as §1, with “JAK-1, and” for “JAK-1,”

[3] = tested on: eukaryotic translation initiation factor 4E member 2; assay: as above; assay type: in vivo, human; settings: 1500 mg per day for 180 days
From the text: as §1
as §1, with “JAK-1, and” for “JAK-1,”

[4] = tested on: serum amyloid A-1 protein precursor; assay: as above; assay type: in vivo, human; settings: 1500 mg per day for 180 days
From the text: as §1
as §1, with “JAK-1, and” for “JAK-1,”

cyclooxygenase-1 = assay: as above; assay type: in vivo, human; settings: 1500 mg per day for 180 days
From the text: as §1
as §1, with “JAK-1, and” for “JAK-1,”

[5] = tested on: eukaryotic translation initiation factor 4E binding protein; assay: as above; assay type: in vivo, human; settings: 1500 mg per day for 180 days
From the text: as §1
as §1, with “JAK-1, and” for “JAK-1,”

[6] = tested on: Lymphocyte receptor/polyubiquitin (W13546); assay: Microarray gene expression in cardiac tissue of Tempol-fed mice; assay type: in vivo; settings: 5 mg/g of food from 14 to 31 months
Protocol: (§2) To assess the effects of Tempol on gene expression, Tempol was administered to experimental mice at a dose of 5 mg/g of food from 14 months to 31 months after birth. Mice receiving the same food without the addition of Tempol were used as a negative control. At the age of 31 months, the experimental animals were sacrificed and the hearts were surgically removed. The expression of a broad spectrum of genes in the cardiac tissue was assessed using chip-based microarray technology. Such chips are well known in the art and are widely used to assess gene expression.

[7] = tested on: T-lymphocyte 1/rpt-1 regulatory protein (J03776); assay: as above; assay type: in vivo; settings: 5 mg/g of food from 14 to 31 months
Protocol: as §2

[8] = tested on: T-cell specific GTPase (U15636); assay: as above; assay type: in vivo; settings: 5 mg/g of food from 14 to 31 months
Protocol: as §2

[9] = tested on: XPE-DNA damage binding protein (AA104319); assay: as above; assay type: in vivo; settings: 5 mg/g of food from 14 to 31 months
Protocol: as §2

[10] = tested on: Serum amyloid P-component precursor (SAP) (Y00426); assay: as above; assay type: in vivo
Protocol: as §2

[11] = tested on: XPE UV-damaged DNA binding factor (W62091); assay: as above; assay type: in vivo; settings: 5 mg/g of food from 14 to 31 months
Protocol: as §2

CD53 antigen (X97227) = assay: as above; assay type: in vivo; settings: 5 mg/g of food from 14 to 31 months
Protocol: as §2

[12] = tested on: Interferon γ-inducible protein/IRG 47GTP-binding (M63690); assay: as above; assay type: in vivo; settings: 5 mg/g of food from 14 to 31 months
Protocol: as §2

[13] = tested on: Immunophilin (FKBP25) (AA120298); assay: as above; assay type: in vivo; settings: 5 mg/g of food from 14 to 31 months
Protocol: as §2

[14] = tested on: Serum amyloid A-1 protein precursor (M13521); assay: as above; assay type: in vivo
Protocol: as §2

Cyclophilin A (AA116993) = assay: as above; assay type: in vivo; settings: 5 mg/g of food from 14 to 31 months
Protocol: as §2

Cathepsin B (M65270) = assay: as above; assay type: in vivo
Protocol: as §2

JAK-1 (AA066354) = assay: as above; assay type: in vivo
Protocol: as §2

[15] = tested on: Interferon induced protein (AA013783); assay: as above; assay type: in vivo; settings: 5 mg/g of food from 14 to 31 months
Protocol: as §2

CD52 antigen (M55561) = assay: as above; assay type: in vivo; settings: 5 mg/g of food from 14 to 31 months
Protocol: as §2

[16] = tested on: Interferon α-induced 11.5 kd protein (P27) (AA120109); assay: as above; assay type: in vivo; settings: 5 mg/g of food from 14 to 31 months
Protocol: as §2

[17] = tested on: Interferon-inducible protein (AA002526); assay: as above; assay type: in vivo; settings: 5 mg/g of food from 14 to 31 months
Protocol: as §2

Hsp-90 homolog (W62326) = assay: as above; assay type: in vivo; settings: 5 mg/g of food from 14 to 31 months
Protocol: as §2

[18] = tested on: Selenium-binding protein 2 (M32032); assay: as above; assay type: in vivo; settings: 5 mg/g of food from 14 to 31 months
Protocol: as §2

[19] = tested on: Eukaryotic translation initiation factor 4 E2 (EIF4E2); assay: Microarray gene expression in adipose tissue of Tempol-fed mice; assay type: in vivo
Protocol: (§3) In a further gene expression study, Tempol was administered to experimental mice at a dose of 5 g/kg of diet from 12 months through 15 months. Mice receiving the same diet without the addition of Tempol were used as a negative control. At the age of 15 months, the adipose tissue of the experimental animals was obtained. The expression of a broad spectrum of genes in the adipose tissue was assessed using chip-based microarray technology. Specifically, in this case an Affymetrix MOE430A 2.0 array, containing 12,960 genes, was employed. Such chips are well known in the art and are widely used to assess gene expression.

Cyclooxygenase 1 (COX-1) = assay: as above; assay type: in vivo
Protocol: as §3

[20] = tested on: Eukaryotic translation initiation factor for E binding protein 1 (EIF4EBP1); assay: as above; assay type: in vivo
Protocol: as §3

Caspase 3 [21] = assay: as above; assay type: in vivo
Protocol: as §3

[22] = Example 1: 70-kilogram patient with symptoms of dementia
[23] = Example 2: 70-kilogram patient with familial risk factors, no symptoms of dementia
[24] = cardiac tissue of experimental mice, Table 1
[25] = adipose tissue of experimental mice, Table 4

## CC1(C)CC(O)CC(C)(C)N1[O] [Tempol, 4-hydroxy-2,2,6,6-tetramethylpiperidine-1-oxyl]
Caspase 3 [1]; [22]
  circulating serum protein level of caspase 3: reduced
Caspase 3 [1]; [23]
  circulating serum protein level of caspase 3: reduced
Cathepsin B; [22]
  circulating serum protein level of cathepsin B: reduced
Cathepsin B; [23]
  circulating serum protein level of cathepsin B: reduced
[2]; [22]
  circulating serum protein level of serum amyloid P-component precursor: reduced
[2]; [23]
  circulating serum protein level of serum amyloid P-component precursor: reduced
JAK-1; [22]
  circulating serum protein level of JAK-1: reduced
JAK-1; [23]
  circulating serum protein level of JAK-1: reduced
[3]; [22]
  circulating serum protein level of eukaryotic translation initiation factor 4E member 2: reduced
[3]; [23]
  circulating serum protein level of eukaryotic translation initiation factor 4E member 2: reduced
[4]; [22]
  circulating serum protein level of serum amyloid A-1 protein precursor: reduced
[4]; [23]
  circulating serum protein level of serum amyloid A-1 protein precursor: reduced
cyclooxygenase-1; [22]
  circulating serum protein level of cyclooxygenase-1: reduced
cyclooxygenase-1; [23]
  circulating serum protein level of cyclooxygenase-1: reduced
[5]; [22]
  serum protein level of eukaryotic translation initiation factor 4E binding protein: increased
[5]; [23]
  serum protein level of eukaryotic translation initiation factor 4E binding protein: increased
[6]; TEMPOL-treated vs control mice
  Fold change: −55.2 fold
[6]; individual mice
  Expression, TEMPOL-treated mice (tp51, tp52, tp53): −16 and −66 and 1331
[7]; TEMPOL-treated vs control mice
  Fold change: −2.7 fold
[7]; individual mice
  Expression, TEMPOL-treated mice (tp51, tp52, tp53): 17 and 42 and 29
[8]; TEMPOL-treated vs control mice
  Fold change: −2.0 fold
[8]; individual mice
  Expression, TEMPOL-treated mice (tp51, tp52, tp53): 146 and 79 and 164
[9]; TEMPOL-treated vs control mice
  Fold change: −5.2 fold
[9]; individual mice
  Expression, TEMPOL-treated mice (tp51, tp52, tp53): 25 and 37 and 115
[10]; Y00426, cardiac tissue, TEMPOL-treated vs control mice, 5 mg/g of food from 14 to 31 months
  Fold change: −2.8 fold
[10]; Y00426, cardiac tissue, individual mice, 5 mg/g of food from 14 to 31 months
  Expression, TEMPOL-treated mice (tp51, tp52, tp53): 43 and 61 and 119
[10]; [24]
  expression of serum amyloid P component precursor reduced: 2.8 fold
[11]; TEMPOL-treated vs control mice
  Fold change: −2.9 fold
[11]; individual mice
  Expression, TEMPOL-treated mice (tp51, tp52, tp53): 61 and 75 and 213
CD53 antigen (X97227); TEMPOL-treated vs control mice
  Fold change: −2.1 fold
CD53 antigen (X97227); individual mice
  Expression, TEMPOL-treated mice (tp51, tp52, tp53): 21 and −17 and −13
[12]; TEMPOL-treated vs control mice
  Fold change: −2.0 fold
[12]; individual mice
  Expression, TEMPOL-treated mice (tp51, tp52, tp53): 29 and 20 and 1
[13]; TEMPOL-treated vs control mice
  Fold change: −2.1 fold
[13]; individual mice
  Expression, TEMPOL-treated mice (tp51, tp52, tp53): 200 and 154 and 164
[14]; M13521, cardiac tissue, TEMPOL-treated vs control mice, 5 mg/g of food from 14 to 31 months
  Fold change: −2.5 fold
[14]; M13521, cardiac tissue, individual mice, 5 mg/g of food from 14 to 31 months
  Expression, TEMPOL-treated mice (tp51, tp52, tp53): 6 and 1 and 8
[14]; [24]
  expression of serum amyloid A-1 protein precursor reduced: 2.5 fold
Cyclophilin A (AA116993); TEMPOL-treated vs control mice
  Fold change: −2.1 fold
Cyclophilin A (AA116993); individual mice
  Expression, TEMPOL-treated mice (tp51, tp52, tp53): 12 and −14 and −10
Cathepsin B (M65270); M65270, cardiac tissue, TEMPOL-treated vs control mice, 5 mg/g of food from 14 to 31 months
  Fold change: −2.8 fold
Cathepsin B (M65270); M65270, cardiac tissue, individual mice, 5 mg/g of food from 14 to 31 months
  Expression, TEMPOL-treated mice (tp51, tp52, tp53): −12 and 6 and 13
Cathepsin B (M65270); cardiac tissue of experimental mice, text restating Table 2
  expression of cathepsin B reduced: 2.8 fold
JAK-1 (AA066354); AA066354, cardiac tissue, TEMPOL-treated vs control mice, 5 mg/g of food from 14 to 31 months
  Fold change: −5.1 fold
JAK-1 (AA066354); AA066354, cardiac tissue, individual mice, 5 mg/g of food from 14 to 31 months
  Expression, TEMPOL-treated mice (tp51, tp52, tp53): 124 and 22 and 30
JAK-1 (AA066354); [24]
  expression of JAI(-1 reduced): 5.1 fold
[15]; TEMPOL-treated vs control mice
  Fold change: −4.9 fold
[15]; individual mice
  Expression, TEMPOL-treated mice (tp51, tp52, tp53): −81 and 27 and 41
CD52 antigen (M55561); TEMPOL-treated vs control mice
  Fold change: −3.5 fold
CD52 antigen (M55561); individual mice
  Expression, TEMPOL-treated mice (tp51, tp52, tp53): 106 and 177 and 171
[16]; TEMPOL-treated vs control mice
  Fold change: −2.3 fold
[16]; individual mice
  Expression, TEMPOL-treated mice (tp51, tp52, tp53): 149 and 88 and 72
[17]; TEMPOL-treated vs control mice
  Fold change: −2.7 fold
[17]; individual mice
  Expression, TEMPOL-treated mice (tp51, tp52, tp53): 26 and 34 and 36
Hsp-90 homolog (W62326); TEMPOL-treated vs control mice
  Fold change: −2.4 fold
Hsp-90 homolog (W62326); individual mice
  Expression, TEMPOL-treated mice (tp51, tp52, tp53): 6 and 16 and 39
[18]; TEMPOL-treated vs control mice
  Fold change: −2.1 fold
[18]; individual mice
  Expression, TEMPOL-treated mice (tp51, tp52, tp53): 554 and 600 and 670
[19]; EIF4E2, 5 g/kg of diet from 12 through 15 months, Affymetrix MOE430A 2.0 array
  Mean (Tempol-treated mice): 873
[19]; EIF4E2, Tempol-treated vs control mice, 5 g/kg of diet from 12 through 15 months
  Fold change: −1.23 fold
[19]; Table 4
  expression of the EIF4E2 protein downregulated: 1.23 fold
Cyclooxygenase 1 (COX-1); COX-1, adipose tissue, 5 g/kg of diet from 12 through 15 months, Affymetrix MOE430A 2.0 array
  Mean (Tempol-treated mice): 331
Cyclooxygenase 1 (COX-1); COX-1, adipose tissue, Tempol-treated vs control mice, 5 g/kg of diet from 12 through 15 months
  Fold change: −1.18 fold
Cyclooxygenase 1 (COX-1); [25]
  expression of COX-1 reduced: 1.18 fold
[20]; EIF4EBP1, 5 g/kg of diet from 12 through 15 months, Affymetrix MOE430A 2.0 array
  Mean (Tempol-treated mice): 4737
[20]; EIF4EBP1, Tempol-treated vs control mice, 5 g/kg of diet from 12 through 15 months
  Fold change: 1.29 fold
[20]; Table 3
  expression of EIF4E binding protein 1 upregulated: 1.29 fold
Caspase 3 [21]; Caspase 3, adipose tissue, 5 g/kg of diet from 12 through 15 months, Affymetrix MOE430A 2.0 array
  Mean (Tempol-treated mice): 414
Caspase 3 [21]; Caspase 3, adipose tissue, Tempol-treated vs control mice, 5 g/kg of diet from 12 through 15 months
  Fold change: −1.47 fold
Caspase 3 [21]; [25]
  expression of caspase 3 reduced: 1.47 fold
